Results on one compound are retold here after US20230241072A1, “ANTHRACYCLINE DERIVATIVES” (ALMAC DISCOVERY LIMITED, priority 2019, published 2023).

The structures appear in SMILES notation.

One data set has as its system NCI-N87. The experiment in a line: Free payload potency in cell lines (96 h): NCI-N87. In kind it is cell-based. The following applies: NCI-N87 (Stomach). The protocol:
(§1) The potency of the EDA-PNU159682 derivative (FIG. 1) was tested in a variety of cell lines.

A further data set concerns MDA-231. The experiment in a line: Free payload potency in cell lines (96 h): MDA-231. In kind it is cell-based. The following applies: MDA-231 (Breast). The protocol: as §1
Data set [1] in a line: Mouse plasma half-life of free payloads (parallel study). As to conditions: free payload. In kind it is in vitro ADME. The method, then: For both the vc-PAB-DMAE-PNU and vc-PAB-EDA-PNU conjugates liberation of some free payload could be detected as a function of time, with 217 nM PNU159682 and 114 nM of EDA-PNU159682 derivative detected after 120 h respectively. Note, in a parallel study, we calculated the mouse plasma half-lives of the free PNU159682 and EDA-PNU159682 derivatives to be 33 h and 116 h respectively.

The test system of the next data set is A2780. The following applies: ovarian cell line A2780; cited from earlier work.
A further data set relates to PA-1. The experiment in a line: Free payload potency in cell lines (96 h): PA-1. In kind it is cell-based, human. As to conditions: PA-1 (Ovarian). The method, then:
as §1

For a further data set, the system named is JeKo-1. The data set can be described thus: Free payload potency in cell lines (96 h): JeKo-1. It counts as cell-based. The following applies: JeKo-1 (MCL). The protocol:
as §1

A further data set relates to Mino. The experiment in a line: Free payload potency in cell lines (96 h): Mino. It counts as cell-based. The following applies: Mino (MCL). The protocol: as §1
Data set [2] relates to PA-1 32.35 (Ovarian ROR1 −/−). The data set can be described thus: Free payload potency in cell lines (96 h): PA-1 32.35. It counts as cell-based, human. The method, then: as §1
The test system of another data set is MHH-ES1. The experiment in a line: Free payload potency in cell lines (96 h): MHH-ES1. As to conditions: MHH-ES1 (Ewings sarcoma). It counts as cell-based, human. The protocol: as §1
A further data set relates to DU145. The data set can be described thus: Free payload potency in cell lines (96 h): DU145. In kind it is cell-based. The following applies: DU145 (Prostate). The method, then:
as §1

The test system of another data set is ACHN. The data set can be described thus: Free payload potency in cell lines (96 h): ACHN. The following applies: ACHN (Kidney). It counts as cell-based. The protocol:
as §1

The next data set relates to MDA-468. The experiment in a line: Free payload potency in cell lines (96 h): MDA-468. In kind it is cell-based. The following applies: MDA-468 (Breast). The protocol:
as §1

The subject of another data set is PC-9. The data set can be described thus: Free payload potency in cell lines (96 h): PC-9. In kind it is cell-based. As to conditions: PC-9 (Lung). The protocol:
as §1

The test system of a further data set is A549. The experiment in a line: Free payload potency in cell lines (96 h): A549. It counts as cell-based, human. The following applies: A549 (Lung). The protocol: as §1
A further data set concerns Kasumi-2. The experiment in a line: Free payload potency in cell lines (96 h): Kasumi-2. It counts as cell-based, human. As to conditions: Kasumi-2 (BCL). The protocol:
as §1

The test system of data set [3] is PA-1 31-J-06 (Ovarian ROR1 −/−). The experiment in a line: Free payload potency in cell lines (96 h): PA-1 31-J-06. It counts as cell-based, human. The protocol: as §1
The test system of a further data set is Panc-1. The experiment in a line: Free payload potency in cell lines (96 h): Panc-1. It counts as cell-based. The following applies: Panc-1 (Pancreatic). The protocol: as §1
Another data set deals with Hs746T. The data set can be described thus: Free payload potency in cell lines (96 h): Hs746T. In kind it is cell-based. The following applies: Hs746T (Stomach). The protocol: as §1
The next data set deals with A427. The data set can be described thus: Free payload potency in cell lines (96 h): A427. It counts as cell-based. As to conditions: A427 (Lung). The protocol:
as §1

Another data set has as its system 697. The data set can be described thus: Free payload potency in cell lines (96 h): 697. It counts as cell-based, human. As to conditions: 697 (BCL). The protocol: as §1
The next data set deals with MCF7. As to conditions: breast cancer cell line MCF7; cited from earlier work.

Take `COc1cccc2c1C(=O)c1c(O)c3c(c(O)c1C2=O)C[C@@](O)(C(=O)CO)C[C@@H]3O[C@H]1C[C@H]2[C@H](O[C@@H]3[C@@H](OC)OCCN32)[C@H](C)O1` [PNU159682]: the IC50 stood at 0.122 nM with NCI-N87; 0.011 nM with MDA-231; 0.0044 nM in the data set with PA-1; 0.044 nM with JeKo-1; 0.037 nM in the data set with Mino; 0.0014 nM in [2]. For the same compound, the IC50 was found to be 0.0034 nM with MHH-ES1; 0.022 nM in the data set on DU145; 0.0097 nM in the data set with ACHN; 0.021 nM in the data set with MDA-468; 0.047 nM in the data set with PC-9; 0.013 nM in the data set on A549. Besides, the IC50 in the data set on Kasumi-2 turned out to be 0.0024 nM; in data set [3], 0.0022 nM; in the data set with Panc-1 it was 0.026 nM; with Hs746T it was 0.049 nM; in the data set with A427, 0.0098 nM; in the data set with 697 it was 0.008 nM. The compound further gave a mouse plasma half-life in [1] of 33 h. For the same compound, the “potency for in vitro cell killing” value in the data set with A2780 and in the data set with MCF7 was “pico- to femtomolar range” throughout.

In general, IC50 refers to the point on the concentration scale where inhibition reaches its midpoint. A high value points to weaker potency in that assay.
